# Where two headings read alike, the source gives them in different places.
# Legend:
# [1] = molecular target: T1, eosinophil peroxidase (EPO) (Homo sapiens, UniProt P11678); assay: Inhibition of EPO-mediated bromination, monochlorodimedone (MCD) assay; assay type: biochemical
# T1 construct: Eosinophil peroxidase was purified from human white blood cells to a purity index (A413/A280) of at least 1.0; from tissue; host or cells: human white blood cells
# Procedure: Eosinophil peroxidase was purified from human white blood cells to a purity index (A413/A280) of at least 1.0 as described by Olsen and Little[27]. Its concentration was calculated using ε413 nm 110 000 M^−1 cm−1[28] Hydrogen peroxide, obtained as a 30% solution from Sigma Chemical Co., was diluted and the concentration determined by the absorbance measurement at 240 nm where the extinction coefficient is 39.4 M^−1 cm−1[29]. The other chemicals were also purchased from Sigma Chemical Co. at the highest grade available.
# Halogenation activity was measured spectrophotometrically (Hitachi U-3000) using the monochlorodimedone (MCD) assay. MCD (100 µM) was dissolved in 100 mM phosphate buffer, pH 7.0 containing either bromide (100 mM) or chloride (100 mM) and 20 nM EPO. Upon addition of 100 µM H2O2 MCD was converted into dibromodimedone. […] If necessary the inhibitor stock solutions were prepared in dimethylsulfoxide (DMSO) and stored in dark flasks. Dilution was performed with 100 mM phosphate buffer, pH 7.0, to a final DMSO concentration of maximal 2% (v/v) in all assays. […] The inhibitor concentration that inhibited eosinophil peroxidase-dependent oxidation of MCD by 50% (IC50) was determined by fitting a rectangular hyperbola to the dose-response curve using nonlinear regression (see supplemental information A). All measurements were made in triplicate.
# The 277 selected compounds were tested for inhibition. Monochlorodimedon (MCD) was used to monitor inhibition of EPO-mediated bromination. It turned out that certain compounds such as hydrazides are able to inhibit the EPO. Table 3 lists the IC50 values of four different 4-chlorophenyl derivatives of hydrazides and acetic acid. […] It is apparent that a free terminal amino group, which could act as an […] is essential for a strong inhibition, additional to steric and/or electrochemical properties of these compounds.
# Supplementary Figure S1: IC 50 plots of inhibition of EPO halogenation activity. Figure A- […]
# 20 nM EPO and 200 µM hydrogen peroxide. Reactions were carried out in 100 mM phosphate buffer, pH 7, at 25 °C, Data are means of triplicate experiments. The inhibitory effect of each inhibitor was measured by determining the concentration at which it inhibited oxidation of MCD by 50% (IC50).
# [2] = tested on: T2, EPO Compound II; assay: Sequential-mixing stopped-flow: reaction/transition of EPO Compound II with inhibitors; assay type: biochemical, human; settings: pH 7.0, 25 °C; for apparent second-order rate constant for Compound II reduction (k4): 100 mM phosphate buffer
# T2 construct: Eosinophil peroxidase was purified from human white blood cells to a purity index (A413/A280) of at least 1.0; from tissue; host or cells: human white blood cells
# Procedure: The sequential stopped-flow apparatus (model SX-18 MV) and the associated computer system were from Applied Photophysics (UK). Because of the inherent instability of Compound I of EPO, the sequential stopped-flow (multi-mixing) technique was used for determination of rate of the reaction of Compound I with different inhibitors. Similar to bovine LPO, human EPO Compound I could be formed with equimolar concentrations of H2O2. In a typical experiment, 2 µM EPO was premixed with 2 µM H2O2 in the aging loop. After 100 ms of delay, the formed Compound I was mixed with increasing concentrations of different inhibitors. Formation and reduction of Compound II by compound 10 was investigated by following the biphasic time trace at 423 nm, where the transition of Compound I to Compound II and further to the […] can be followed. The kinetic traces were fitted using the double-exponential equation of the Applied Photophysics software. At least three determinations (2000 data points) of pseudo-first-order rate constants (kobs) from the first phase of the reaction were performed for each substrate concentration and the mean value was used in the calculation of the second-order rate constants, which were calculated from the slope of the line defined by a plot of kobs versus substrate concentration. Compound 11 was investigated by following the biphasic time traces at 430 nm the maximum absorbance of Compound II. All reactions were followed both at single wavelengths as well as with a diode-array detector. Polychromatic data were analysed with Pro-Kineticist from Applied Photophysics. The program simultaneously fits the kinetic traces at all wavelengths to the proposed reaction mechanism and simulates the spectra of all reactant, product and intermediate species as well as their time-dependent distribution on the reaction coordinate. All measurements were done in 100 mM phosphate buffer, pH 7.0, at 25 °C with a minimum of three repeats. […]
# (§1) Firstly we investigated compound 10. […] Compound I reduction with compound 10 was measured at 423 nm. […]
# [3] = tested on: T3, EPO Compound I; assay: Sequential-mixing stopped-flow: reaction of EPO Compound I with inhibitors; assay type: biochemical, human; settings: for apparent second-order rate constant for Compound I reduction (k3): 100 mM phosphate buffer, pH 7.0, 25 °C; for type of inhibition (reversible / irreversible): concluded from pre-steady-state kinetics
# T3 construct: Eosinophil peroxidase was purified from human white blood cells to a purity index (A413/A280) of at least 1.0; from tissue; host or cells: human white blood cells
# Procedure: The sequential stopped-flow apparatus (model SX-18 MV) and the associated computer system were from Applied Photophysics (UK). Because of the inherent instability of Compound I of EPO, the sequential stopped-flow (multi-mixing) technique was used for determination of rate of the reaction of Compound I with different inhibitors. Similar to bovine LPO, human EPO Compound I could be formed with equimolar concentrations of H2O2. In a typical experiment, 2 µM EPO was premixed with 2 µM H2O2 in the aging loop. After 100 ms of delay, the formed Compound I was mixed with increasing concentrations of different inhibitors. Formation and reduction of Compound II by compound 10 was investigated by following the biphasic time trace at 423 nm, where the transition of Compound I to Compound II and further to the […] can be followed. The kinetic traces were fitted using the double-exponential equation of the Applied Photophysics software. At least three determinations (2000 data points) of pseudo-first-order rate constants (kobs) from the first phase of the reaction were performed for each substrate concentration and the mean value was used in the calculation of the second-order rate constants, which were calculated from the slope of the line defined by a plot of kobs versus substrate concentration. Compound 11 was investigated by following the biphasic time traces at 430 nm the maximum absorbance of Compound II. All reactions were followed both at single wavelengths as well as with a diode-array detector. Polychromatic data were analysed with Pro-Kineticist from Applied Photophysics. The program simultaneously fits the kinetic traces at all wavelengths to the proposed reaction mechanism and simulates the spectra of all reactant, product and intermediate species as well as their time-dependent distribution on the reaction coordinate. All measurements were done in 100 mM phosphate buffer, pH 7.0, at 25 °C with a minimum of three repeats.
# In order to determine the mechanism of inhibition of EPO with aceto-hydrazide, acetic acid and thioacetic acid derivatives, a pre-steady-state kinetic study was performed with sequential-mixing stopped-flow spectroscopy. Three redox intermediates are relevant in the enzymology of EPO, namely Compound I, Compound II and Compound III (Figure 3). […] Alternatively, Compound I can also be reduced back by two one-electron reduction steps via Compound II (k3 and k4), Figure 3). The ferric enzyme can be reduced to ferrous enzyme (k5). Compound III can be formed either from ferric enzyme by reversible binding of superoxide (O2^–) (k6) or from the ferrous enzyme by reversible binding of dioxygen (O2) (k7). […]
# as §1
# [4] = tested on: dextran sulfate-induced model of ulcerative colitis; design: method as in PMID 15100311; settings: wild-type mice; cited from earlier work
# [5] = Table 4, 20 nM EPO, 100 mM bromide, 100 µM H2O2, pH 7.0, read-out: IC50 value
# [6] = training and test set compounds of the pharmacophore model, read-out: EPO IC50
# [7] = Table 3, 20 nM EPO, 100 mM bromide, 100 µM H2O2, pH 7.0, read-out: IC50 value
# [8] = as stated in text (abstract, conclusion), read-out: IC50
# T1 sequence (P11678 251-715 limits assumed): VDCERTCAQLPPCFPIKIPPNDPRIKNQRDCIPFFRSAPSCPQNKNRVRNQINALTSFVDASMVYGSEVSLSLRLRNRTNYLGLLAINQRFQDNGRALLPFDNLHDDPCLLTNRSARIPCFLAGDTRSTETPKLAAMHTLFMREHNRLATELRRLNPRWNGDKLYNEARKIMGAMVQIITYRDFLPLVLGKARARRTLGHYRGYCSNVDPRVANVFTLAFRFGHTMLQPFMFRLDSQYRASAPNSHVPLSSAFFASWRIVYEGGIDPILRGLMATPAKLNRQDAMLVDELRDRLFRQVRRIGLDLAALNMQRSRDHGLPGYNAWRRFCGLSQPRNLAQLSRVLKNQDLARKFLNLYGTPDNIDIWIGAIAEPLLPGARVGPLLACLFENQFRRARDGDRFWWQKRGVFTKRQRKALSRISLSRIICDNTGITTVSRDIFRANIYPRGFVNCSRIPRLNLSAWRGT
# T1 sequence (P11678 140-250 limits assumed): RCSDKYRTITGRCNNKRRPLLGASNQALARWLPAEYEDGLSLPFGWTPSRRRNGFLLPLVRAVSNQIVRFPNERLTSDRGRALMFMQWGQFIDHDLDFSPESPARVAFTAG
SMILES,"IC50 [1, 5]","IC50 [1, 6]",also measured
"NNC(=O)CNc1ccc(Br)cc1 [Compound 17, 4-Bromo-PAAH]",0.823 ± 0.08 µM,,
"NNC(=O)c1ccccc1O [Compound 3, reference compound]",,0.075 µM,
"O=C(O)CNc1ccc(Cl)cc1 [Compound 11, 2-[(4-chlorophenyl)amino]-acetic acid]",,,"apparent second-order rate constant for Compound II reduction (k4) [2]: 11000 M⁻¹ s⁻¹; apparent second-order rate constant for Compound I reduction (k3) [3]: 6.9e+06 M⁻¹ s⁻¹; type of inhibition (reversible / irreversible) [3]: reversible inhibitor; IC50 [1, 7]: 0.205 ± 0.03 µM"
"NNC(=O)c1nn(-c2ccccc2)cc1O [Compound 4, reference compound]",,0.42 µM,
"NNc1cc(Cl)ccc1[N+](=O)[O-] [Compound 5, reference compound]",,0.77 µM,
"NNC(=O)CSc1ccc(Cl)cc1 [Compound 12, 2-(4-chlorophenyl) thio-acetohydrazide]",,,apparent second-order rate constant for Compound II reduction (k4) [2]: 140000 M⁻¹ s⁻¹
"NNC(=O)CNc1cccc(Br)c1 [Compound 23, 3-Bromo-PAAH]",0.823 ± 0.06 µM,,
"NNC(=O)CNc1ccc(I)cc1 [Compound 18, 4-Iodo-PAAH]",0.29 ± 0.02 µM,,
"NNC(=O)COc1ccc(Cl)cc1 [Compound 13, 2-(4-chlorophenoxy)-aceto-hydrazide]",,,"IC50 [1, 7]: 4.9 ± 0.1 µM"
"NNC(=O)CNc1ccccc1 [Compound 14, PAAH]",2.9 ± 0.1 µM,,
"NNC(=O)CNc1ccc(Cl)cc1 [Compound 10, 2-[(4-chlorophenyl)amino]-acetohydrazide]",,,"rate constant for transition Compound II - Compound III ([2]; independent of inhibitor concentration): ~1.2 s⁻¹; apparent second-order rate constant for Compound I reduction (k3) [3]: 9.2e+06 M⁻¹ s⁻¹; type of inhibition (reversible / irreversible) [3]: irreversible inhibitor; IC50 [1, 8]: 0.021 µM"
Oc1cccc(O)c1 [resorcinol],,,"disease activity parameters (weight loss, colon shrinkage, colonic bleeding) [4]: diminished"

# Continued, in another order:
"IC50 [1, 5]","IC50 [1, 6]",SMILES,also measured
,0.05 µM,"NNC(=O)c1nn(-c2ccccc2C(F)(F)F)cc1O [Compound 1, reference compound]",
0.034 ± 0.005 µM,,"NNC(=O)CNc1ccc(F)c(Cl)c1 [Compound 21, 3-Chloro-4-fluoro-PAAH]",
,0.98 µM,"CC/N=c1/scc(-c2ccc(O)c(C(N)=O)c2)n1CC [Compound 6, reference compound]",
0.01 ± 0.005 µM,,"NNC(=O)CNc1ccccc1F [Compound 19, 2-[(2-fluorophenyl)amino]-aceto-hydrazide]","IC50 [1, 8]: 0.01 µM"
0.02 ± 0.006 µM,,"NNC(=O)CNc1ccc(F)cc1F [Compound 20, 2,4-di Fluoro-PAAH]",
2.27 ± 0.09 µM,,"Cc1ccc(NCC(=O)NN)cc1 [Compound 15, 4-Methyl-PAAH]",
,1.05 µM,"C=CCNc1nc2c(c(=O)[nH]c(=O)n2C)n1CC(O)CO (stereo not shown) [Compound 7, reference compound]",
,3.52 µM,"NNC(=O)c1ccc(O)cc1O [Compound 9, reference compound]",
,0.12 µM,"Cn1c(=O)[nH]c(=O)c2c1nc(NCCCO)n2CCO [Compound 2, reference compound]",
,2.9 µM,"COc1ccc2[nH]cc(CCNC(C)=O)c2c1 [Compound 8, reference compound]",
0.91 ± 0.04 µM,,"NNC(=O)CNc1ccccc1Cl [Compound 22, 2-Chloro-PAAH]",
0.172 ± 0.03 µM,,"NNC(=O)CNc1ccc(F)cc1 [Compound 16, 4-Fluoro-PAAH]",
